Assay: loss of linezolid in IV solution during and following terminal moist heat sterilization in the container
Type: physicochemical
Details: container-solution contact surface made of at least 50% polyolefin
From the text: It is well known to those skilled in the art that pharmaceutical agents administered IV must be sterile. While there are a number of methods to sterilize an IV solution, it is preferred to terminally moist heat or steam sterilize IV solutions of antibacterial oxazolidinones including those of linezolid. When the term terminally “moist heat sterilize” is used, it refers to and includes steam sterilization.
When terminally moist heat sterilizing an IV solution, the solution is placed in the container in which (1) it will be stored and then transferred to the container from which it will ultimately be administered, or (2) stored and then ultimately administered from the same container to deliver the IV solution to the patient. Therefore, it is imperative that the pharmaceutically active ingredient (oxazolidinone, linezolid) not react with the container in which it is to be terminally moist heat sterilized and stored/stored-administered.
What is essential is that the container-solution contact surface material be primarily a polyolefin; the remainder of the container can be made from polyolefin or other materials. It is preferred that the container-solution contact surface is made of from about 50 to about 100% polyolefin. It is more preferred that the container-solution contact surface is made of from about 70 to about 90% polyolefin. […]

loss of linezolid during and following terminal moist heat sterilization: significantly much less loss
Structure (SMILES): CC(=O)NC[C@H]1CN(c2ccc(N3CCOCC3)c(F)c2)C(=O)O1 [linezolid, (S)-N-[[3-[3-fluoro-4-(4-morpholinyl)phenyl]-2-oxo-5-oxazolidinyl]methyl]acetamide]
